# Data: ChEMBL document CHEMBL2046287, “Conformation study of 2-arylbenzimidazoles as inhibitors of Chlamydia pneumoniae growth” (2012)
# System: Chlamydia pneumoniae
# Assay: Growth inhibition of Chlamydia pneumoniae at 10 uM
# Type: functional
# Conditions: read-out: GI
row,Structure (SMILES),inhibition of growth at 10 µM [%]
1,Cc1ccccc1C(=O)Nc1ccccc1,99
2,Cc1ccccc1-c1nc2ccccc2[nH]1,59
3,c1ccc(-c2nc3ccccc3[nH]2)cc1,89
4,O=C(Nc1ccccc1)c1ccco1,45
5,O=C(Nc1ccccc1)c1ccsc1,68
6,O=C(Nc1ccccc1)c1ccccc1C(F)(F)F,96
7,Cn1c(-c2ccccc2)nc2ccccc21,0
8,O=C(Nc1ccccc1)c1cccs1,89
9,O=C(Nc1ccccc1)c1ccoc1,78
10,Cn1cccc1C(=O)Nc1ccccc1,80
11,O=C(Nc1ccccc1)c1ccccc1F,0
12,COc1ccccc1C(=O)Nc1ccccc1,0
13,O=C(Nc1ccccc1)c1cscn1,39
14,O=C(Nc1ccccc1)c1ccccn1,36
15,c1ccc(-c2nc3ccccc3o2)cc1 [2-PHENYLBENZO[D]OXAZOLE],61
16,O=C(Nc1ccccc1)c1ccccc1 [N-PHENYLBENZAMIDE],99
